Laboratory results reported in the NIST ThermoML archive (doi:10.1016/j.jct.2009.10.003).
± gives the expanded uncertainty stated by the source.

What was measured:
[1] = Molar enthalpy of transition or fusion; settings: Crystal; DSC
[2] = Crystal; DTA
[3] = molar heat capacity at constant pressure; settings: 298.15 K; 101.33 kPa; Liquid; Small sample (50 mg) DSC

Q: Which results are given for NS(=O)(=O)c1ccccc1[N+](=O)[O-] [2-nitrobenzenesulfonamide]?
A: Molar enthalpy of transition or fusion [1]: 6.77 ± 0.155 kcal/mol; Normal melting temperature [2]: 189.92 ± 0.39 °C; molar heat capacity at constant pressure [3]: 179.54 ± 8.5 J/K/mol

Q: With NS(=O)(=O)c1cccc([N+](=O)[O-])c1 [3-nitrobenzenesulfonamide] as the compound, how does the “Molar enthalpy of transition or fusion” value [1] read?
A: 7.52 ± 0.177 kcal/mol

Q: What about the Normal melting temperature [2] of the same compound?
A: 164.00 ± 0.39 °C

Q: What about the “molar heat capacity at constant pressure” value [3] of the same compound?
A: 199.96 ± 8.5 J/K/mol

Q: For NS(=O)(=O)c1ccc([N+](=O)[O-])cc1 [4-nitrobenzenesulfonamide], which “Molar enthalpy of transition or fusion” value [1] is on record?
A: 7.12 ± 0.155 kcal/mol

Q: And the Normal melting temperature [2]?
A: 180.46 ± 0.39 °C

Q: And the “molar heat capacity at constant pressure” value [3]?
A: 219.98 ± 13 J/K/mol
